Measurements from patent publication US5723484A, “Benzopyran compounds as 5-HT2C receptor antagonists” (Adir et Compagnie, priority 1994, dated 1998).
Counter-ions that a name gives are not always drawn.

Tests used:
5-HT2C receptors [1] = target: T1, 5-HT2C receptors (Sus scrofa, UniProt K7GSR7); assay: biochemical; format: binding, pig; settings: for Ki: 5-HT2C Ki (nM), pig cerebral plexus, [3H]-mesulergine 1.0 nM, average of two to four determinations
T1 construct: pig cerebral plexus; from tissue; host or cells: pig cerebral plexus (own knowledge: choroid plexus)
T1 sequence (K7GSR7 1-457): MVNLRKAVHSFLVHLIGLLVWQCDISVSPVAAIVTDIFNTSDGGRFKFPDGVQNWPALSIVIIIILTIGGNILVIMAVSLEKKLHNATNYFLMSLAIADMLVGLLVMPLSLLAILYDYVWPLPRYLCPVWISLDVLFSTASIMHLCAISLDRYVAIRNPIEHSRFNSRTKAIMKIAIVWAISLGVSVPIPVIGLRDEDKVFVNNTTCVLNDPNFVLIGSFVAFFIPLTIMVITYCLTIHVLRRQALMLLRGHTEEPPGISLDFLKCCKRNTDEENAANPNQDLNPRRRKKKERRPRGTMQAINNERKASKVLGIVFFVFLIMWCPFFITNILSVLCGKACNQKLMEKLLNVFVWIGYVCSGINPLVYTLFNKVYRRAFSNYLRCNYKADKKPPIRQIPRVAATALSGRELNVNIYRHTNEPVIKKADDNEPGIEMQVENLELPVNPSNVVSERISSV
Protocol: (§1) Measurement of the in vitro affinity for the 5-HT2C and 5-HT2A receptors
(§2) The procedures described for the studies of the binding to the 5-HT2A and 5-HT2C receptors are exactly those described by H. Canton et al. (Eur. J. Pharmacol., 191, 93, 1990) and M. J. Millan et al. (J. Pharmacol. Exp. Ther., 262, 451-463, 1992). For 5-HT2A : rat frontal cortex/[^3 H]-ketanserin (1.0 nM). For 5-HT2C : pig […] plexus/[^3 H]-mesulergine (1.0 nM). The 50% inhibitory doses (ID50) are determined by regression analysis and the pKi values are calculated as follows: [formula] [L]=concentration of the Kd-Kd=dissociation constant Results

5-HT2C receptors [2] = assay: biochemical; format: binding, pig; settings: for 5-HT2A /5-HT2C affinity ratio: 5-HT2A Ki (rat frontal cortex) over 5-HT2C Ki (pig cerebral plexus); for selectivity relative to the reference compound SB 200,646: 5-HT2C vs 5-HT2A, relative to SB 200,646
Protocol: as §1, §2

5-HT2A receptors = target: T2, 5-HT2A receptors (Rattus norvegicus, UniProt P14842); assay: In vitro affinity for the 5-HT2A receptors, rat frontal cortex/[3H]-ketanserin (1.0 nM); format: binding; settings: rat frontal cortex, [3H]-ketanserin 1.0 nM; average of two to four determinations
T2 construct: rat frontal cortex; from tissue; host or cells: rat frontal cortex
Protocol: as §1, §2

T2 sequence (P14842 whole entry): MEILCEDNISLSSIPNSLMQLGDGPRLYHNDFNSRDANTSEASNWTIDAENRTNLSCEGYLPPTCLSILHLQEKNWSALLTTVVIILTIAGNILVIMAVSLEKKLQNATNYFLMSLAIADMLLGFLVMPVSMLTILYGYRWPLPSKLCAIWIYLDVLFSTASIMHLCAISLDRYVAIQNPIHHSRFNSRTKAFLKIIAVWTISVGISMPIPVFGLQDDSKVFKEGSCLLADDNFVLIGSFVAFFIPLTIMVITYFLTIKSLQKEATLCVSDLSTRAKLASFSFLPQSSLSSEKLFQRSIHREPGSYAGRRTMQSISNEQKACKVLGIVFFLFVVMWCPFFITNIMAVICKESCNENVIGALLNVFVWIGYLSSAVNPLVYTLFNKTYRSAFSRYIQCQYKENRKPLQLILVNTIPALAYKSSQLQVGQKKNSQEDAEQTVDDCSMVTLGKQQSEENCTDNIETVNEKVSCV

Compound	Ki (5-HT2C receptors [1])	5-HT2A /5-HT2C affinity ratio (5-HT2C receptors [2])	Ki (5-HT2A receptors)	selectivity relative to the reference compound SB 200,646 (5-HT2C receptors [2])	times more powerful antagonists than the reference compound SB 200,646 (5-HT2C receptors [1]; relative to SB 200,646)
c1ccc(CN2C[C@H]3COc4ccc5ccccc5c4[C@H]3C2)cc1 (relative stereo) [Example 37, cis-2-Benzyl-1,2,3,3a,4,11c-hexahydro-5-oxa-2-aza-cyclopenta[c]phenanthrenehydrochloride]	155 nM	8.7	1350 nM		
Cl.Oc1cccc2c1[C@H]1CN(Cc3ccccc3)C[C@@H]1CO2 (relative stereo) [Example 2, trans-2-Benzyl-9-hydroxy-1,3,3a,4,9b-pentahydro-(1)-benzopyrano[3,4-c]pyrrole hydrochloride]	195 nM	2.5	490 nM		
COc1ccc2c(c1)[C@H]1CN(Cc3ccccc3)C[C@@H]1CO2.Cl (relative stereo) [Example 9, trans-2-Benzyl-8-methoxy-1,3,3a,4,9b-pentahydro-(1)-benzopyrano[3,4-c]pyrrole hydrochloride]	468 nM	2.3	1100 nM		
CCCN1C[C@@H]2COc3cccc(OC)c3[C@H]2C1 (relative stereo) [Example 6, trans-2-Propyl-9-methoxy-1,3,3a,4,9b-pentahydro-(1)-benzopyrano[3,4-c]pyrrole]	104 nM	16.7	1740 nM	twice that of the reference compound SB 200,646	
COc1cccc2c1[C@H]1CNC[C@@H]1CO2.Cl (relative stereo) [Example 4, trans-9-Methoxy-1,3,3a,4,9b-pentahydro-(1)-benzopyrano[3,4-c]pyrrole hydrochloride]	431 nM	8.0	3470 nM		
Cl.c1ccc2c3c(ccc2c1)OC[C@@H]1CNC[C@@H]31 (relative stereo) [Example 33, trans-1,2,3,3a,4,11c-Hexahydro-5-oxa-2-aza-cyclopenta[c]phenanthrene hydrochloride]	51 nM	2.1	107 nM		
Cl.c1ccc2c3c(ccc2c1)OC[C@@H]1CNC[C@H]31 (relative stereo) [Example 38, cis-1,2,3,3a,4,11c-Hexahydro-5-oxa-2-aza-cyclopenta[c]phenanthrene hydrochloride]	22.9 nM	4.3	97.7 nM		
C=CCN1C[C@@H]2COc3cccc(OC)c3[C@H]2C1 (relative stereo) [Example 7, trans-2-Allyl-9-methoxy-1,3,3a,4,9b-pentahydro-(1)-benzopyrano[3,4-c]pyrrol]	120 nM	15.2	1820 nM	twice that of the reference compound SB 200,646	
COc1cccc2c1[C@@H]1CNC[C@@H]1CO2.Cl (relative stereo) [Example 16, cis-9-Methoxy-1,3,3a,4,9b-pentahydro-(1)-benzopyrano[3,4-c]pyrrole hydrochloride]	263 nM	12.6	3310 nM		
Cl.c1ccc2c3c(ccc2c1)[C@@H]1CNC[C@@H]1CO3 (relative stereo) [Example 36, cis-12,13,14,15,16,17-Hexahydro-11-oxa-16-aza-cyclopenta[a]phenanthrene hydrochloride]	25.7 nM	10	257 nM		
Cl.c1ccc(CN2C[C@@H]3COc4ccccc4[C@@H]3C2)cc1 (relative stereo) [Example 12, cis-2-Benzyl-1,3,3a,4,9b-pentahydro-(1)-benzopyrano[3,4-c]pyrrole hydrochloride]	832 nM	4.3	3550 nM		
Cl.c1ccc2c(c1)OC[C@H]1CNC[C@@H]21 (relative stereo) [Example 13, cis-1,3,3a,4,9b-Pentahydro-(1)-benzopyrano[3,4-c]pyrrole hydrochloride]	3090 nM	> 3.33	> 10000 nM		
COc1cccc2c1[C@H]1CN(Cc3ccccc3)C[C@@H]1CO2.Cl (relative stereo) [Example 3, trans-2-Benzyl-9-methoxy-1,3,3a,4,9b-pentahydro-(1)-benzopyrano[3,4-c]pyrrole hydrochloride]	48 nM	5.6	269 nM		
c1ccc2c(c1)OC[C@@H]1CN(CCOc3cccc4c3SCCC4)C[C@H]21 (relative stereo) [Example 19, cis-2-[2-(Thiochroman-8-yloxy)ethyl]-1,3,3a,9b-pentahydro-(1)-benzopyrano[3,4-c]pyrrole hydrochloride]	22 nM	7.0	155 nM		9 times
Cl.c1ccc(CN2C[C@@H]3COc4c(ccc5ccccc45)[C@@H]3C2)cc1 (relative stereo) [Example 35, cis-16-Benzyl-12,13,14,15,16,17-hexahydro-11-oxa-16-aza-cyclopenta[a]phenanthrene hydrochloride]	331 nM	2.9	955 nM		
COc1ccc2c(c1)OC[C@H]1CN(Cc3ccccc3)C[C@H]21.Cl (relative stereo) [Example 22, trans-2-Benzyl-7-methoxy-1,3,3a,4,9b-pentahydro-(1)-benzopyrano[3,4-c]pyrrole hydrochloride]	478 nM	3.6	170 nM		
Clc1ccc2c(c1)[C@H]1CN(Cc3ccccc3)C[C@H]1CO2 (relative stereo) [Example 24, cis-2-Benzyl-8-chloro-1,3,3a,4,9b-pentahydro-(1)-benzopyrano[3,4-c]pyrrolehydrochloride]	38 nM	2.8	107 nM		
COc1cccc2c1[C@H]1CN(Cc3ccccc3)C[C@H]1CO2 (relative stereo) [Example 15, cis-2-Benzyl-9-methoxy-1,3,3a,4,9b-pentahydro-(1)-benzopyrano[3,4-c]pyrrolehydrochloride]	36.3 nM	10.7	389 nM		
Oc1cccc2c1[C@H]1CN(Cc3ccccc3)C[C@H]1CO2 (relative stereo) [Example 14, cis-2-Benzyl-9-hydroxy-1,3,3a,4,9b-pentahydro-(1)-benzopyrano[3,4-c]pyrrolehydrochloride]	219 nM	5.00	1100 nM		
Cl.Clc1ccc2c(c1)OC[C@H]1CN(Cc3ccccc3)C[C@H]21 (relative stereo) [Example 18, trans-2-Benzyl-7-chloro-1,3,3a,4,9b-pentahydro-(1)-benzopyrano[3,4-c]pyrrole hydrochloride]	871 nM	2.1	1870 nM		
COc1ccc2c(c1)[C@H]1CNC[C@@H]1CO2.Cl (relative stereo) [Example 10, trans-8-Methoxy-1,3,3a,4,9b-pentahydro-(1)-benzopyrano[3,4-c]pyrrole hydrochloride]	2190 nM	> 4.8	> 10000 nM		
COc1ccc2c(c1)OC[C@@H]1CN(Cc3ccccc3)C[C@H]21 (relative stereo) [Example 21, cis-2-Benzyl-7-methoxy-1,3,3a,4,9b-pentahydro-(1)-benzopyrano[3,4-c]pyrrolehydrochloride]	871 nM	0.7	617 nM		
COc1cccc2c1[C@@H]1CN(CCNC(=O)c3ccc(F)cc3)C[C@H]1CO2 (relative stereo) [Example 8, trans-2-[3-(4-Fluorobenzoylamino)ethyl]-9-methoxy-1,3,3a,4,9b-pentahydro-(1)-benzopyrano[3,4-c]pyrrole]	107 nM	0.9	95 nM		
Cl.c1ccc(CN2C[C@H]3COc4c(ccc5ccccc45)[C@@H]3C2)cc1 (relative stereo) [Example 34, trans-16-Benzyl-12,13,14,15,16,17-hexahydro-11-oxa-16-aza-cyclopenta[a]phenanthrene hydrochloride]	776 nM	1.9	1480 nM		
CCCN1C[C@@H]2COc3ccc(OC)cc3[C@H]2C1.Cl (relative stereo) [Example 11, trans-2-Propyl-8-methoxy-1,3,3a,4,9b-pentahydro-(1)-benzopyrano[3,4-c]pyrrole hydrochloride]	4070 nM	> 2.3	> 10000 nM		
